Like-named read-outs stand apart in the source and are kept apart here.
Tests used:
[1] = tested on: DLD1 WT cells; assay: 7-day cell viability assay (CellTiter-Glo), DLD1 parental (WT); type: cell-based, human; conditions: 7-day CellTiter-Glo, n=2
Procedure: (§1) Cell lines DLD1 WT and DLD1 BRCA2 (−/−) (Horizon Discovery Cat No. HD PAR-008 and HD-105-007) were plated in 384-well culture plates at seeding densities of 100cells/50 ul/well and 200 cells/50 uL/well respectively. The seeding densities are pre-determined from the growth curve kinetics performed to ensure log linear phase of cell growth for these 2 cell lines. These assay plates are then placed in the incubator at 37° C., 5% CO2, relative humidity >90% for a few hours before addition of test compounds. Compounds are dispensed using the Tecan HPD300 or Echo based on the plate map in the appropriate wells of the 384-well plates. The cells are treated with nine-point dose response with 3-fold serial dilutions of test compounds starting at 10 uM top concentration. After addition of the test compounds, the plates are incubated at 37° C., 5% CO2, relative humidity >90% for 7 days. CellTiter-Glo (Promega Cat. No. G7573), ATP detection reagent is prepared according to manufacturer's specifications. Cell assay plates are removed from incubator and bring to room temperature (RT) by letting them sit at bench top for at least 15 min. Using the MultiDrop liquid handler or a multichannel pipette, 35 μL/well of CTG is added and the plates are then placed shakes for 5 seconds, RT.

[2] = tested on: DLD1 BRCA2 (−/−) cells; assay: 7-day cell viability assay (CellTiter-Glo), DLD1 BRCA2 (−/−); type: cell-based, human; conditions: 7-day CellTiter-Glo, n=2, read-out: Viability IC50 (uM) DLD1 BRCA2 null
Procedure: as §1

Compound: 2′-chloro-N-(5-(3-chloro-5-(1,1-difluoroethyl)picolinoyl)-5,6-dihydro-4H-pyrrolo[3,4-d]thiazol-2-yl)-5′-methoxy-6-methyl-[4,4′-bipyridine]-3-carboxamide [Example 625]
- IC50 [1]: ≥ 10 µM
- IC50 [2]: 0.1 to 0.25 µM

Compound: 2′-chloro-N-(5-(4-cyano-1-methyl-1H-pyrazole-5-carbonyl)-5,6-dihydro-4H-pyrrolo[3,4-d]thiazol-2-yl)-5′-methoxy-6-methyl-[4,4′-bipyridine]-3-carboxamide [Example 581]
- IC50 [1]: ≥ 10 µM
- IC50 [2]: 0.001 to 0.1 µM

Compound: 2′-chloro-N-(5-(5-chloro-2-methylisonicotinoyl)-5,6-dihydro-4H-pyrrolo[3,4-d]thiazol-2-yl)-5′-methoxy-6-methyl-[4,4′-bipyridine]-3-carboxamide [Example 519]
- IC50 [1]: ≥ 10 µM
- IC50 [2]: 0.001 to 0.1 µM

Compound: 2′-chloro-N-(5-(5-chloro-4-(difluoromethyl)pyrimidine-2-carbonyl)-5,6-dihydro-4H-pyrrolo[3,4-d]thiazol-2-yl)-5′-methoxy-6-methyl-[4,4′-bipyridine]-3-carboxamide [Example 644]
- IC50 [1]: ≥ 10 µM
- IC50 [2]: 0.1 to 0.25 µM

Compound: 2′-chloro-N-(5-(5-chloropyrimidine-2-carbonyl)-5,6-dihydro-4H-pyrrolo[3,4-d]thiazol-2-yl)-5′-(difluoromethoxy)-6-methyl-[4,4′-bipyridine]-3-carboxamide [Example 648]
- IC50 [1]: ≥ 10 µM
- IC50 [2]: 0.001 to 0.1 µM

Compound: 2′-chloro-N-(5-(6-chloro-5-fluoropicolinoyl)-5,6-dihydro-4H-pyrrolo[3,4-d]thiazol-2-yl)-5′-methoxy-6-methyl-[4,4′-bipyridine]-3-carboxamide [Example 388]
- IC50 [1]: 2 to 5 µM
- IC50 [2]: 0.001 to 0.1 µM

Compound: 4-(5-Cyano-2-methoxyphenyl)-N-(5-(3-(difluoromethyl)-4-methoxybenzoyl)-5,6-dihydro-4H-pyrrolo[3,4-d]thiazol-2-yl)-6-methylnicotinamide [Example 486]
- IC50 [1]: ≥ 10 µM
- IC50 [2]: 0.001 to 0.1 µM

Compound: COc1cnc(Cl)cc1-c1cc(C)ncc1C(=O)Nc1nc2c(s1)CN(C(=O)c1ncc(Cl)c(C(F)F)n1)C2 (racemic)
- IC50 ([1]; Homo sapiens, DLD-1, 168 h): ≥ 10 µM
- IC50 ([2]; Homo sapiens, DLD-1, 168 h): 0.25 to 0.5 µM

Compound: COc1cnc(Cl)cc1-c1cc(C)ncc1C(=O)Nc1nc2c(s1)CN(C(=O)c1ncc(C(F)F)nc1C)C2 (racemic)
- IC50 ([1]; Homo sapiens, DLD-1, 168 h): ≥ 10 µM
- IC50 ([2]; Homo sapiens, DLD-1, 168 h): 0.25 to 0.5 µM

Compound: COc1cnc(Cl)cc1-c1cc(C)ncc1C(=O)Nc1nc2c(s1)CN(C(=O)c1cc(C)cc(Cl)n1)C2 [Example 392, 2′-chloro-N-(5-(6-chloro-4-methylpicolinoyl)-5,6-dihydro-4H-pyrrolo[3,4-d]thiazol-2-yl)-5′-methoxy-6-methyl-[4,4′-bipyridine]-3-carboxamide]
- IC50 ([1]; Homo sapiens, DLD-1, 168 h): ≥ 10 µM
- IC50 ([2]; Homo sapiens, DLD-1, 168 h): 0.1 to 0.25 µM

Compound: COc1cnc(Cl)cc1-c1cc(C)ncc1C(=O)Nc1nc2c(s1)CN(C(=O)c1cccc(OC)c1Cl)C2 [Example 396, 2′-chloro-N-(5-(2-chloro-3-methoxybenzoyl)-5,6-dihydro-4H-pyrrolo[3,4-d]thiazol-2-yl)-5′-methoxy-6-methyl-[4,4′-bipyridine]-3-carboxamide]
- IC50 ([1]; Homo sapiens, DLD-1, 168 h): ≥ 10 µM
- IC50 ([2]; Homo sapiens, DLD-1, 168 h): 0.001 to 0.1 µM

Compound: COc1ncc(Cl)cc1-c1cc(C)ncc1C(=O)Nc1nc2c(s1)CN(C(=O)c1ccc(C(F)F)cn1)C2 [Example 446, 5-Chloro-N-(5-(5-(difluoromethyl)picolinoyl)-5,6-dihydro-4H-pyrrolo[3,4-d]thiazol-2-yl)-2-methoxy-6′-methyl-[3,4′-bipyridine]-3′-carboxamide]
- IC50 ([1]; Homo sapiens, DLD-1, 168 h): 2 to 5 µM
- IC50 ([2]; Homo sapiens, DLD-1, 168 h): 0.001 to 0.1 µM

Compound: COc1cnc(Cl)cc1-c1cc(C)ncc1C(=O)Nc1nc2c(s1)CN(C(=O)c1ccc(C#N)cn1)C2 [Example 578]
- IC50 ([1]; Homo sapiens, DLD-1, 168 h): 5 to 10 µM
- IC50 ([2]; Homo sapiens, DLD-1, 168 h): 0.001 to 0.1 µM

Compound: COc1cnc(Cl)cc1-c1cc(C)ncc1C(=O)Nc1nc2c(s1)CN(C(=O)c1cc(C)c(C#N)cn1)C2 [Example 611]
- IC50 ([1]; Homo sapiens, DLD-1, 168 h): ≥ 10 µM
- IC50 ([2]; Homo sapiens, DLD-1, 168 h): 0.001 to 0.1 µM

Compound: COc1cnc(Cl)cc1-c1cc(C)ncc1C(=O)Nc1nc2c(s1)CN(C(=O)c1nc(C)c(C(F)F)cc1F)C2 [Example 621]
- IC50 ([1]; Homo sapiens, DLD-1, 168 h): ≥ 10 µM
- IC50 ([2]; Homo sapiens, DLD-1, 168 h): 0.001 to 0.1 µM

Compound: COc1cnc(Cl)cc1-c1cc(C)ncc1C(=O)Nc1nc2c(s1)CN(C(=O)c1nc(C)c(Cl)nc1C)C2 [Example 622]
- IC50 ([1]; Homo sapiens, DLD-1, 168 h): ≥ 10 µM
- IC50 ([2]; Homo sapiens, DLD-1, 168 h): 0.001 to 0.1 µM

Compound: COc1cnc(Cl)cc1-c1cc(C)ncc1C(=O)Nc1nc2c(s1)CN(C(=O)c1c(C)cc(C(F)(F)F)nc1C)C2 [Example 649]
- IC50 ([1]; Homo sapiens, DLD-1, 168 h): ≥ 10 µM
- IC50 ([2]; Homo sapiens, DLD-1, 168 h): 0.001 to 0.1 µM

Compound: COc1cnc(Cl)cc1-c1cc(C)ncc1C(=O)Nc1nc2c(s1)CN(C(=O)c1cc(C)c(C(F)F)cn1)C2 [Example 903, 2′-chloro-N-(5-(5-(difluoromethyl)-4-methylpicolinoyl)-5,6-dihydro-4H-pyrrolo[3,4-d]thiazol-2-yl)-5′-methoxy-6-methyl-[4,4′-bipyridine]-3-carboxamide]
- IC50 ([1]; Homo sapiens, DLD-1, 168 h): ≥ 10 µM
- IC50 ([2]; Homo sapiens, DLD-1, 168 h): 0.001 to 0.1 µM

Compound: COc1cnc(Cl)cc1-c1cc(C)ncc1C(=O)Nc1nc2c(s1)CN(C(=O)c1ncc(C)nc1OC)C2 [Example 905, 2′-chloro-5′-methoxy-N-(5-(3-methoxy-5-methylpyrazine-2-carbonyl)-5,6-dihydro-4H-pyrrolo[3,4-d]thiazol-2-yl)-6-methyl-[4,4′-bipyridine]-3-carboxamide]
- IC50 ([1]; Homo sapiens, DLD-1, 168 h): ≥ 10 µM
- IC50 ([2]; Homo sapiens, DLD-1, 168 h): 0.001 to 0.1 µM

Compound: COc1cnc(Cl)cc1-c1cc(C)ncc1C(=O)Nc1nc2c(s1)CN(C(=O)c1ncc(C(F)F)c(OC)n1)C2 [Example 907, 2′-chloro-N-(5-(5-(difluoromethyl)-4-methoxypyrimidine-2-carbonyl)-5,6-dihydro-4H-pyrrolo[3,4-d]thiazol-2-yl)-5′-methoxy-6-methyl-[4,4′-bipyridine]-3-carboxamide]
- IC50 ([1]; Homo sapiens, DLD-1, 168 h): ≥ 10 µM
- IC50 ([2]; Homo sapiens, DLD-1, 168 h): 0.001 to 0.1 µM

Compound: COc1cnc(Cl)cc1-c1cc(C)ncc1C(=O)Nc1nc2c(s1)CN(C(=O)[C@H]1CC[C@H](C(F)F)CC1)C2 [Example 908, 2′-chloro-N-(5-((1r,4r)-4-(difluoromethyl)cyclohexane-1-carbonyl)-5,6-dihydro-4H-pyrrolo[3,4-d]thiazol-2-yl)-5′-methoxy-6-methyl-[4,4′-bipyridine]-3-carboxamide]
- IC50 ([1]; Homo sapiens, DLD-1, 168 h): ≥ 10 µM
- IC50 ([2]; Homo sapiens, DLD-1, 168 h): 0.001 to 0.1 µM

Compound: COc1cnc(Cl)cc1-c1cc(C)ncc1C(=O)Nc1nc2c(s1)CN(C(=O)[C@H]1CC[C@@H](C(F)F)CC1)C2 [Example 909, 2′-chloro-N-(5-((1s,4s)-4-(difluoromethyl)cyclohexane-1-carbonyl)-5,6-dihydro-4H-pyrrolo[3,4-d]thiazol-2-yl)-5′-methoxy-6-methyl-[4,4′-bipyridine]-3-carboxamide]
- IC50 ([1]; Homo sapiens, DLD-1, 168 h): ≥ 10 µM
- IC50 ([2]; Homo sapiens, DLD-1, 168 h): 0.001 to 0.1 µM

Compound: Cc1cc(-c2cc(Cl)ncc2OC(F)F)c(C(=O)Nc2nc3c(s2)CN(C(=O)c2ncc(Cl)cn2)C3)cn1 [Example 910, 2′-chloro-N-(5-(5-chloropyrimidine-2-carbonyl)-5,6-dihydro-4H-pyrrolo[3,4-d]thiazol-2-yl)-5′-(difluoromethoxy)-6-methyl-[4,4′-bipyridine]-3-carboxamide]
- IC50 ([1]; Homo sapiens, DLD-1, 168 h): ≥ 10 µM
- IC50 ([2]; Homo sapiens, DLD-1, 168 h): 0.001 to 0.1 µM

Compound: Cc1cc(-c2cc(Cl)ncc2OC(F)F)c(C(=O)Nc2nc3c(s2)CN(C(=O)c2nc(C(F)F)ccc2Cl)C3)cn1 [Example 922, 2′-chloro-N-(S-(3-chloro-6-(difluoromethyl)picolinoyl)-5,6-dihydro-4H-pyrrolo[3,4-d]thiazol-2-yl)-5′-(difluoromethoxy)-6-methyl-[4,4′-bipyridine]-3-carboxamide]
- IC50 ([1]; Homo sapiens, DLD-1, 168 h): ≥ 10 µM
- IC50 ([2]; Homo sapiens, DLD-1, 168 h): 0.001 to 0.1 µM

Compound: COc1cnc(Cl)cc1-c1cc(C)ncc1C(=O)Nc1nc2c(s1)CN(C(=O)c1ccc(C(F)(F)F)nc1Cl)C2 [Example 923, 2′-chloro-N-(5-(2-chloro-6-(trifluoromethyl)nicotinoyl)-5,6-dihydro-4H-pyrrolo[3,4-d]thiazol-2-yl)-5′-methoxy-6-methyl-[4,4′-bipyridine]-3-carboxamide]
- IC50 ([1]; Homo sapiens, DLD-1, 168 h): ≥ 10 µM
- IC50 ([2]; Homo sapiens, DLD-1, 168 h): 0.001 to 0.1 µM

Compound: COc1cnc(Cl)cc1-c1cc(C)ncc1C(=O)Nc1nc2c(s1)CN(C(=O)[C@H]1CC[C@@H](OC(F)(F)F)CC1)C2 [Example 925]
- IC50 ([1]; Homo sapiens, DLD-1, 168 h): 5 to 10 µM
- IC50 ([2]; Homo sapiens, DLD-1, 168 h): 0.001 to 0.1 µM

Compound: COc1cnc(Cl)cc1-c1cc(C)ncc1C(=O)Nc1nc2c(s1)CN(C(=O)c1nccc(Cl)c1C(F)F)C2 [Example 926, 2′-chloro-N-(5-(4-chloro-3-(difluoromethyl)picolinoyl)-5,6-dihydro-4H-pyrrolo[3,4-d]thiazol-2-yl)-5′-methoxy-6-methyl-[4,4′-bipyridine]-3-carboxamide]
- IC50 ([1]; Homo sapiens, DLD-1, 168 h): ≥ 10 µM
- IC50 ([2]; Homo sapiens, DLD-1, 168 h): 0.001 to 0.1 µM

Compound: COc1cnc(Cl)cc1-c1cc(C)ncc1C(=O)Nc1nc2c(s1)CN(C(=O)c1nc(Cl)c(C(F)F)cc1F)C2 [Example 927, 2′-chloro-N-(5-(6-chloro-5-(difluoromethyl)-3-fluoropicolinoyl)-5,6-dihydro-4H-pyrrolo[3,4-d]thiazol-2-yl)-5′-methoxy-6-methyl-[4,4′-bipyridine]-3-carboxamide]
- IC50 ([1]; Homo sapiens, DLD-1, 168 h): ≥ 10 µM
- IC50 ([2]; Homo sapiens, DLD-1, 168 h): 0.001 to 0.1 µM

Compound: COc1cnc(Cl)cc1-c1cc(C)ncc1C(=O)Nc1nc2c(s1)CN(C(=O)c1nc(C(F)(F)F)ccc1F)C2 [Example 936, 2′-chloro-N-(5-(3-fluoro-6-(trifluoromethyl)picolinoyl)-5,6-dihydro-4H-pyrrolo[3,4-d]thiazol-2-yl)-5′-methoxy-6-methyl-[4,4′-bipyridine]-3-carboxamide]
- IC50 ([1]; Homo sapiens, DLD-1, 168 h): ≥ 10 µM
- IC50 ([2]; Homo sapiens, DLD-1, 168 h): 0.001 to 0.1 µM
